Measurements taken from patent US20170312308A1, “XENON AND/OR ARGON TREATMENT AS AN ADJUNCT TO PSY[…] PSYCHIATRIC DISORDERS” (THE MCLEAN HOSPITAL CORPORATION, priority 2012, published 2017).
“Also recorded” adds a separate entry of the source.

Tests used:
Type in all cases: in vivo, rat
Male Sprague-Dawley rats [1] = experiment: Conditioned freezing paradigm: consolidation of fear memory (xenon exposure immediately after fear conditioning); conditions: for conditioned freezing to context (consolidation of fear memory) / conditioned freezing to tone (CS) (consolidation of fear memory): xenon 25% for 24 h immediately after tone+shock training, vs Air-treated, tested after exposure and retested 1 and 2 weeks later; for conditioned freezing to context (consolidation of fear memory): FIG. 1B; for conditioned freezing to tone (CS) (consolidation of fear memory): FIG. 1C
Description: (§1) An illustration of the methodology used for training and testing rats in the conditioned freezing paradigm is shown in FIG. 1 (see also Johansen et al., Cell, 2011, 147; 509-524). Male Sprague-Dawley rats (350-375 g) were housed for at least one week before the experiment. On the training day, rats were placed into a conditioning chamber, housed within a sound-attenuating cabinet (Med Associates, Georgia, Vt.), for 2 min before the onset of the conditioned stimulus (CS). The CS was a tone (5 kHz, 75 dB) that lasted for 30 s. The last 2 s of the CS were paired with a continuous foot shock (0.6 mA, the unconditioned stimulus (US)). Rats received two presentations of the CS+US (tone plus shock). After additional 30 s in the chamber, rats were randomly divided into two groups (n=4/group) and immediately placed in either the Air or xenon-exposure chambers. After 24-h of air or xenon (25%) exposure, rats were tested for retention of conditioned fear using conditioned freezing as a measure of fear. For the test, rats were placed into a different context and, 2 min later, were exposed to the tone CS (5 kHz, 75 dB) for 60 s. Freezing scores were calculated as the percentage of the total duration that the rat remained immobile (frozen) other than breathing during the first 2 min (freezing to context) and during presentation of the CS (freezing to tone). Rats were then returned to the main animal holding room (i.e. no more air or xenon exposure took place) and were retested 1 and 2 weeks later (re-test and 3rd test) as described above.

Male Sprague-Dawley rats [2] = experiment: Conditioned freezing paradigm: reconsolidation of fear memory (xenon exposure after reactivation test); conditions: for conditioned freezing to context (reconsolidation of fear memory): FIG. 1D; for conditioned freezing to tone (reconsolidation of fear memory): FIG. 1E
Description: as §1
Newly formed memories, including traumatic memories, are stabilized over several hours after the acquisition for long-term storage. This process, termed consolidation, critically depends on the permanence of acquisition-induced synaptic modifications in the corresponding neural circuits and is NMDA-receptor dependent. Once retrieved, consolidated memory enters a labile state again and should be reconsolidated, or it will be diminished or lost (see Debiec, 2012). To explore the effects of xenon exposure on post-retrieval memory reconsolidation, the inventors trained and tested male Sprague-Dawley rats in the conditioned freezing paradigm described in the methods section above.
Immediately after the fear memory test (24 h post-conditioning), where animals are subjected to context and CS (tone) exposure previously paired with shock (on the training day), rats were placed in either the Air or xenon (25%) exposure chambers for 1 hr. Rats were then tested for conditioned freezing 48 hours later. […]

Male Sprague-Dawley rats [3] = experiment: as above; conditions: xenon 25%, no react group (no reactivation test); for conditioned freezing to context, animals without reactivation test: FIG. 1F; for conditioned freezing to tone, animals without reactivation test: FIG. 1G
[4] = xenon 25% for 1 hr after reactivation test 24 h post-conditioning, re-tested 48 hours later (PR-LTM1)
[5] = xenon 25% for 1 hr after reactivation test 24 h post-conditioning, re-tested 48 hours later (PR-LTM1), listed as Xe
[6] = xenon 25% for one hour after reactivation, tested after another 48 hours (PR-LTM2)

[Xe] [xenon]
fear memory / conditioned freezing, context and cue not separated (Male Sprague-Dawley rats [1]; inhaled xenon (25%), male Sprague-Dawley rats, vs non-treated animals, FIG. 1): significantly reduces the consolidation of fear memories; also recorded: significantly reduced conditioned freezing
conditioned freezing to context (consolidation of fear memory) (Male Sprague-Dawley rats [1]): reduced levels of conditioned freezing
conditioned freezing to context (consolidation of fear memory) (Male Sprague-Dawley rats [1]; listed as Xe): significant reduction in freezing
conditioned freezing to tone (CS) (consolidation of fear memory) (Male Sprague-Dawley rats [1]): reduced levels of conditioned freezing
conditioned freezing to tone (CS) (consolidation of fear memory) (Male Sprague-Dawley rats [1]; listed as Xe): also reduced
conditioned freezing to context (reconsolidation of fear memory) (Male Sprague-Dawley rats [2]; [4]): reduces the expression of conditioned freezing; also recorded: blocks reconsolidation of conditioned fear
conditioned freezing to context (reconsolidation of fear memory) (Male Sprague-Dawley rats [2]; [5]): significantly less freezing
conditioned freezing to tone (reconsolidation of fear memory) (Male Sprague-Dawley rats [2]; [4]): reduces the expression of conditioned freezing; also recorded: blocks reconsolidation of conditioned fear
conditioned freezing to tone (reconsolidation of fear memory) (Male Sprague-Dawley rats [2]; [5]): significantly less freezing
conditioned freezing to context (reconsolidation of fear memory) (Male Sprague-Dawley rats [2]; [6]): significantly less freezing
conditioned freezing to tone (reconsolidation of fear memory) (Male Sprague-Dawley rats [2]; [6]): significantly less freezing
conditioned freezing to context, animals without reactivation test (Male Sprague-Dawley rats [3]): does not block reconsolidation of conditioned fear
conditioned freezing to context, animals without reactivation test (Male Sprague-Dawley rats [3]; listed as Xe): no reduction in freezing
conditioned freezing to tone, animals without reactivation test (Male Sprague-Dawley rats [3]): does not block reconsolidation of conditioned fear
conditioned freezing to tone, animals without reactivation test (Male Sprague-Dawley rats [3]; listed as Xe): no reduction in freezing
